How the values were obtained:
Experiment in all cases: relative viability (nuclei count vs DMSO), 5 days (fraction); higher = more cells survive
[1] = compound: COc1cc2ncn(-c3cc(OCc4ccccc4C(F)(F)F)c(C(N)=O)s3)c2cc1OC + Cc1cc(Nc2cc(N3CCN(C)CC3)nc(Sc3ccc(NC(=O)C4CC4)cc3)n2)n[nH]1 [Tozasertib] (partner 0.1 µM)
Summary of the method: (§1)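 Lung cancer cell lines in 1536-well plates were dosed by pin tool the day after seeding, either with one drug alone or with a fixed anchor-drug dose plus five library-drug doses (not always all listed) in √10 steps. After 5 days, cells were fixed and their nuclei stained in one step (final 0.05% Triton X-100, 1% formaldehyde, 1 ug/ml Hoechst), then counted on 4× images. Relative viability is the nuclei count in treated wells divided by that in vehicle wells. Values are medians of duplicate plates.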

[2] = compound: COc1cc2ncn(-c3cc(OCc4ccccc4C(F)(F)F)c(C(N)=O)s3)c2cc1OC + COc1cc2c(Oc3ccc(NC(=O)C4(C(=O)Nc5ccc(F)cc5)CC4)cc3F)ccnc2cc1OCCCN1CCOCC1 [Foretinib] (partner 0.25 µM)
Summary of the method: as §1

[3] = compound: COc1cc2ncn(-c3cc(OCc4ccccc4C(F)(F)F)c(C(N)=O)s3)c2cc1OC + NC(=O)Nc1cc(-c2cccc(F)c2)sc1C(=O)N[C@H]1CCCNC1 [AZD7762] (partner 0.2 µM)
Summary of the method: as §1

[4] = compound: COc1cc2ncn(-c3cc(OCc4ccccc4C(F)(F)F)c(C(N)=O)s3)c2cc1OC + CCNC(=O)c1noc(-c2cc(C(C)C)c(O)cc2O)c1-c1ccc(CN2CCOCC2)cc1 [Luminespib] (partner 0.01 µM)
Summary of the method: as §1

Cell Line	relative viability ([1]; first compound 0.05 µM)	relative viability ([1]; first compound 0.1581 µM)	relative viability ([1]; first compound 0.5 µM)	relative viability ([1]; first compound 1.581 µM)	relative viability ([1]; first compound 5 µM)	relative viability ([2]; first compound 0.05 µM)	relative viability ([2]; first compound 0.1581 µM)	relative viability ([2]; first compound 0.5 µM)	relative viability ([2]; first compound 1.581 µM)	relative viability ([2]; first compound 5 µM)	relative viability ([3]; first compound 0.05 µM)	relative viability ([3]; first compound 0.1581 µM)	relative viability ([3]; first compound 0.5 µM)	relative viability ([3]; first compound 1.581 µM)	relative viability ([3]; first compound 5 µM)	relative viability ([4]; first compound 0.05 µM)	relative viability ([4]; first compound 0.1581 µM)	relative viability ([4]; first compound 0.5 µM)	relative viability ([4]; first compound 1.581 µM)	relative viability ([4]; first compound 5 µM)
NCI-H1793	0.34	0.296	0.292	0.239	0.191	0.925	0.825	0.506	0.24	0.164	0.463	0.407	0.301	0.148	0.103	0.163	0.194	0.176	0.15	0.128
NCI-H1915	0.499	0.515	0.352	0.166	0.142	1.08	1.03	0.702	0.204	0.141	0.709	0.862	0.597	0.161	0.097	0.796	0.713	0.389	0.0805	0.0432
NCI-H1944	0.297	0.3	0.274	0.23	0.216	0.804	1.03	0.743	0.221	0.131	0.546	0.545	0.426	0.168	0.0968	0.512	0.705	0.543	0.177	0.0836
NCI-H1975	0.677	0.453	0.173	0.138	0.126	0.932	0.961	0.516	0.155	0.138	0.737	0.751	0.564	0.433	0.261	0.229	0.26	0.184	0.163	0.233
NCI-H1993	0.581	0.613	0.566	0.637	0.661	0.652	0.884	0.662	0.579	0.569	0.921	0.814	0.53	0.418	0.381	0.756	0.8	0.548	0.463	0.448
NCI-H2085	0.761	0.738	0.403	0.407	0.454	0.931	1	0.566	0.294	0.31	0.969	0.964	0.862	0.39	0.248	0.37	0.401	0.357	0.273	0.253
NCI-H2087	0.255	0.253	0.144	0.126	0.114	1.16	1.21	0.261	0.117	0.128	1.37	1.22	0.575	0.12	0.109	0.174	0.177	0.162	0.14	0.167
NCI-H2126	0.756	0.908	0.521	0.218	0.245	1.21	1.26	0.672	0.365	0.318	1.05	1.03	0.881	0.446	0.258	0.957	0.875	0.532	0.288	0.265

— the supplement of paper PMC10307832
